Tests used:
Mus musculus [1] = assay: Antitumor activity against murine S-180 sarcoma at dose of LD50 X 1/20 equal toxicity; format: functional
Mus musculus [2] = assay: Antitumor activity against murine S-180 sarcoma at dose of LD50 X 1/10 equal toxicity; format: functional
[3] = In vivo antitumor activity against murine S-180 sarcoma at a dose of 2.5 mg/kg administered intraperitoneally 7qd in mice expressed effect on tumor weight; format: functional, Mus musculus; conditions: route intraperitoneal
[4] = Antitumor activity against murine S-180 sarcoma at dose of 0.022(mmol/kg); format: functional, Mus musculus
[5] = In vivo antitumor activity against murine S-180 sarcoma at a dose of 5 mg/kg administered intraperitoneally 7qd in mice expressed effect on tumor weight; format: functional, Mus musculus; conditions: route intraperitoneal
[6] = In vivo antitumor activity against murine S-180 sarcoma at a dose of 1.3 mg/kg administered intraperitoneally 7qd in mice expressed effect on tumor weight; format: functional, Mus musculus; conditions: route intraperitoneal
[7] = In vivo antitumor activity against murine S-180 sarcoma at a dose of 1.3 mg/kg administered intraperitoneally 7qd in mice; Body wt initial/Final = 19.9/23.4; format: functional, Mus musculus; conditions: route intraperitoneal
[8] = In vivo antitumor activity against murine S-180 sarcoma at a dose of 2.5 mg/kg administered intraperitoneally 7qd in mice; Body wt initial/Final = 20.0/21.3; format: functional, Mus musculus; conditions: route intraperitoneal
[9] = In vivo antitumor activity against murine S-180 sarcoma at a dose of 2.5 mg/kg administered intraperitoneally 7qd in mice expressed as percent inhibition; format: functional; conditions: Mus musculus, S-180, ip, route intraperitoneal
[10] = In vivo antitumor activity against murine S-180 sarcoma at a dose of 5 mg/kg administered intraperitoneally 7qd in Male TA1 mice; 9 survived out of 10 mice; format: functional, Mus musculus; conditions: route intraperitoneal
Mus musculus [11] = assay: Antitumor activity against murine S-180 sarcoma at dose of LD50 X 1/40 equal toxicity; format: functional
[12] = In vivo antitumor activity against murine S-180 sarcoma at a dose of 6.8 mg/kg administered intraperitoneally 7qd in mice; Body wt initial/Final = 19.8/18.4; format: functional, Mus musculus; conditions: route intraperitoneal
[13] = In vivo antitumor activity against murine S-180 sarcoma at a dose of 1.3 mg/kg administered intraperitoneally 7qd in mice expressed as percent inhibition; format: functional; conditions: Mus musculus, S-180, ip, route intraperitoneal
[14] = In vivo antitumor activity against murine S-180 sarcoma at a dose of 6.8 mg/kg administered intraperitoneally 7qd in mice expressed as percent inhibition; format: functional; conditions: Mus musculus, S-180, ip, route intraperitoneal
[15] = Lethal dose at a concentration of 0.163 mmol/kg in mice administered intraperitoneally; format: toxicity, organism-based; conditions: mouse, in vivo, ip
[16] = In vivo antitumor activity against murine S-180 sarcoma at a dose of 6.8 mg/kg administered intraperitoneally 7qd in mice expressed effect on tumor weight; format: functional, Mus musculus; conditions: route intraperitoneal
[17] = Antitumor activity against murine S-180 sarcoma at dose of 0.004(mmol/kg); format: functional, Mus musculus
[18] = In vivo antitumor activity against murine S-180 sarcoma at a dose of 1.3 mg/kg administered intraperitoneally 7qd in Male TA1 mice; 10 survived out of 10 mice; format: functional, Mus musculus; conditions: route intraperitoneal
[19] = Therapeutic Index was determined; conditions: read-out: TI
[20] = In vivo antitumor activity against murine S-180 sarcoma at a dose of 5 mg/kg administered intraperitoneally 7qd in mice expressed as percent inhibition; format: functional; conditions: Mus musculus, S-180, ip, route intraperitoneal
[21] = Antitumor activity against murine S-180 sarcoma at dose of 0.008(mmol/kg); format: functional, Mus musculus
[22] = In vivo antitumor activity against murine S-180 sarcoma at a dose of 5 mg/kg administered intraperitoneally 7qd in mice; Body wt initial/Final = 19.7/19.1; format: functional, Mus musculus; conditions: route intraperitoneal
[23] = In vivo antitumor activity against murine S-180 sarcoma at a dose of 6.8 mg/kg administered intraperitoneally 7qd in Male TA1 mice; 9 survived out of 10 mice; format: functional, Mus musculus; conditions: route intraperitoneal
[24] = Antitumor activity against murine S-180 sarcoma at dose of 0.016(mmol/kg); format: functional, Mus musculus
[25] = In vivo antitumor activity against murine S-180 sarcoma at a dose of 2.5 mg/kg administered intraperitoneally 7qd in Male TA1 mice; 10 survived out of 10 mice; format: functional, Mus musculus; conditions: route intraperitoneal
[26] = In vivo antitumor activity against murine S-180 sarcoma at a dose of 3.3 mg/kg administered intraperitoneally 7qd in mice expressed as percent inhibition; format: functional; conditions: Mus musculus, S-180, ip, route intraperitoneal
[27] = In vivo antitumor activity against murine S-180 sarcoma at a dose of 9.6 mg/kg administered intraperitoneally 7qd in mice expressed effect on tumor weight; format: functional, Mus musculus; conditions: route intraperitoneal
[28] = In vivo antitumor activity against murine S-180 sarcoma at a dose of 3.3 mg/kg administered intraperitoneally 7qd in mice expressed effect on tumor weight; format: functional, Mus musculus; conditions: route intraperitoneal
[29] = In vivo antitumor activity against murine S-180 sarcoma at a dose of 6.5 mg/kg administered intraperitoneally 7qd in mice expressed as percent inhibition; format: functional; conditions: Mus musculus, S-180, ip, route intraperitoneal
[30] = In vivo antitumor activity against murine S-180 sarcoma at a dose of 13 mg/kg administered intraperitoneally 7qd in mice expressed effect on tumor weight; format: functional, Mus musculus; conditions: route intraperitoneal
[31] = Lethal dose at a concentration of 0.225 mmol/kg in mice administered intraperitoneally; format: toxicity, organism-based; conditions: mouse, in vivo, ip
[32] = In vivo antitumor activity against murine S-180 sarcoma at a dose of 13 mg/kg administered intraperitoneally 7qd in Male TA1 mice; 9 survived out of 10 mice; format: functional, Mus musculus; conditions: route intraperitoneal
[33] = In vivo antitumor activity against murine S-180 sarcoma at a dose of 9.6 mg/kg administered intraperitoneally 7qd in mice expressed as percent inhibition; format: functional; conditions: Mus musculus, S-180, ip, route intraperitoneal
[34] = In vivo antitumor activity against murine S-180 sarcoma at a dose of 4.8 mg/kg administered intraperitoneally 7qd in mice; Body wt initial/Final = 19.8/20.7; format: functional, Mus musculus; conditions: route intraperitoneal
[35] = In vivo antitumor activity against murine S-180 sarcoma at a dose of 9.6 mg/kg administered intraperitoneally 7qd in Male TA1 mice; 9 survived out of 10 mice; format: functional, Mus musculus; conditions: route intraperitoneal
[36] = In vivo antitumor activity against murine S-180 sarcoma at a dose of 4.8 mg/kg administered intraperitoneally 7qd in mice expressed as percent inhibition; format: functional; conditions: Mus musculus, S-180, ip, route intraperitoneal
[37] = In vivo antitumor activity against murine S-180 sarcoma at a dose of 6.5 mg/kg administered intraperitoneally 7qd in mice; Body wt initial/Final = 19.8/19.5; format: functional, Mus musculus; conditions: route intraperitoneal
[38] = In vivo antitumor activity against murine S-180 sarcoma at a dose of 2.5 mg/kg administered intraperitoneally 7qd in mice; Body wt initial/Final = 19.9/23.4; format: functional, Mus musculus; conditions: route intraperitoneal
[39] = In vivo antitumor activity against murine S-180 sarcoma at a dose of 9.6 mg/kg administered intraperitoneally 7qd in mice; Body wt initial/Final = 19.6/18.3; format: functional, Mus musculus; conditions: route intraperitoneal
[40] = In vivo antitumor activity against murine S-180 sarcoma at a dose of 3.3 mg/kg administered intraperitoneally 7qd in Male TA1 mice; 10 survived out of 10 mice; format: functional, Mus musculus; conditions: route intraperitoneal
[41] = In vivo antitumor activity against murine S-180 sarcoma at a dose of 6.5 mg/kg administered intraperitoneally 7qd in mice expressed effect on tumor weight; format: functional, Mus musculus; conditions: route intraperitoneal
[42] = In vivo antitumor activity against murine S-180 sarcoma at a dose of 4.8 mg/kg administered intraperitoneally 7qd in Male TA1 mice; 10 survived out of 10 mice; format: functional, Mus musculus; conditions: route intraperitoneal
[43] = In vivo antitumor activity against murine S-180 sarcoma at a dose of 6.5 mg/kg administered intraperitoneally 7qd in Male TA1 mice; 10 survived out of 10 mice; format: functional, Mus musculus; conditions: route intraperitoneal
[44] = In vivo antitumor activity against murine S-180 sarcoma at a dose of 3.3 mg/kg administered intraperitoneally 7qd in mice; Body wt initial/Final = 19.6/22.5; format: functional, Mus musculus; conditions: route intraperitoneal
[45] = In vivo antitumor activity against murine S-180 sarcoma at a dose of 13 mg/kg administered intraperitoneally 7qd in mice; Body wt initial/Final = 19.8/18.0; format: functional, Mus musculus; conditions: route intraperitoneal
[46] = In vivo antitumor activity against murine S-180 sarcoma at a dose of 4.8 mg/kg administered intraperitoneally 7qd in mice expressed effect on tumor weight; format: functional, Mus musculus; conditions: route intraperitoneal
[47] = In vivo antitumor activity against murine S-180 sarcoma at a dose of 13 mg/kg administered intraperitoneally 7qd in mice expressed as percent inhibition; format: functional; conditions: Mus musculus, S-180, ip, route intraperitoneal

With `O=C(O)CCCc1ccc(N(CCCl)CCCl)cc1` [CHLORAMBUCIL] the LD50 x 1/20 (Mus musculus [1]) was 52.9, the LD50 x 1/10 (Mus musculus [2]) was 73.3 and the Tumor weight [3] was 1.04. For the same molecule, the Antitumour activity [4] was 77.4, the Tumor weight [5] was 0.59 and the Tumor weight [6] was 1.39. The “Body weight In. / Fi.” value [7] was 19.9 g, the “Body weight In. / Fi.” value [8] was 20 g and the inhibition in vivo at 2.5 mg/kg [9] was 52.9%. For the same molecule, the “Mice In. / Fi.” value [10] was 9, the LD50 x 1/40 (Mus musculus [11]) was 37.1 and the “Body weight In. / Fi.” value [12] was 19.8 g. For the same molecule, the inhibition in vivo at 1.3 mg/kg [13] was 37.1%, the inhibition in vivo at 6.8 mg/kg [14] was 77.4% and the LD50 [15] was 49.6 mg/kg. The Tumor weight [16] was 0.5, the Antitumour activity [17] was 37.1 and the “Mice In. / Fi.” value [18] was 10. For the same molecule, the selectivity ratio [19] was 22.8, the inhibition in vivo at 5 mg/kg [20] was 73.3% and the Antitumour activity [21] was 52.9. The “Body weight In. / Fi.” value [22] was 19.7 g, the “Mice In. / Fi.” value [23] was 9 and the Antitumour activity [24] was 73.3. The “Mice In. / Fi.” value [25] was 10.

`Nc1ccc(S(=O)(=O)N(CCOC(=O)CCCc2ccc(N(CCCl)CCCl)cc2)c2ncccn2)cc1` showed an LD50 x 1/20 (Mus musculus [1]) of 74.2, an LD50 x 1/10 (Mus musculus [2]) of 81.5 and a Tumor weight [3] of 1.15. For the same molecule, the inhibition in vivo at 3.3 mg/kg [26] was 50.7%, the Antitumour activity [4] was 81.5 and the Tumor weight [27] was 0.51. The Tumor weight [28] was 1.09, the inhibition in vivo at 6.5 mg/kg [29] was 74.2% and the Tumor weight [30] was 0.41. The LD50 [31] was 131 mg/kg, the “Mice In. / Fi.” value [32] was 9 and the inhibition in vivo at 9.6 mg/kg [33] was 76.9%. For the same molecule, the “Body weight In. / Fi.” value [34] was 19.8 g, the “Mice In. / Fi.” value [35] was 9 and the inhibition in vivo at 2.5 mg/kg [9] was 48%. The inhibition in vivo at 4.8 mg/kg [36] was 63.4%, the LD50 x 1/40 (Mus musculus [11]) was 50.7 and the “Body weight In. / Fi.” value [37] was 19.8 g. For the same molecule, the “Body weight In. / Fi.” value [38] was 19.9 g, the “Body weight In. / Fi.” value [39] was 19.6 g and the “Mice In. / Fi.” value [40] was 10. For the same molecule, the Tumor weight [41] was 0.57, the “Mice In. / Fi.” value [42] was 10 and the “Mice In. / Fi.” value [43] was 10. The Antitumour activity [17] was 47.9, the “Body weight In. / Fi.” value [44] was 19.6 g and the selectivity ratio [19] was 47.5. For the same molecule, the Antitumour activity [21] was 63.4, the “Body weight In. / Fi.” value [45] was 19.8 g and the Antitumour activity [24] was 76.9. The “Mice In. / Fi.” value [25] was 10, the Tumor weight [46] was 0.81 and the inhibition in vivo at 13 mg/kg [47] was 81.5%.

Source: ChEMBL document CHEMBL1134243, “2-[N1-2-pyrimidyl-aminobenzenesulfonamido] ethyl 4-bis(2-chloroethyl) aminophenyl butyrate: a potent antitumor agent” (Bioorg Med Chem Lett, 2001)
